# Data taken from patent publication US7601752B2, “Pyrrolidine derivatives” (Hoffmann-La Roche Inc., priority 2005, dated 2009).
# Target: T1, human factor Xa (Homo sapiens, UniProt P00742)
# T1 construct: purchased Enzyme Research Laboratories
# Test: Chromogenic peptide substrate (S-2222) assay, inhibition of coagulation factor Xa
# Format: biochemical
# Details: apparent dissociation constant by Cheng-Prusoff from IC50; human factor Xa 3 nM, substrate S-2222, HNPT buffer pH 7.8, room temperature
# Procedure: Factor Xa activity was measured spectrophotometrically in microtiter plates in a final volume of 150 μl using the following conditions: Inhibition of human factor Xa (Enzyme Research Laboratories) was tested at an enzyme concentration of 3 nM using the chromogenic substrate S-2222 (Chromogenix AB, Mölndal, Sweden) at […]. The reaction kinetics of the enzyme and the substrate were linear with both time and the enzyme concentration. The inhibitors were dissolved in DMSO and tested at various concentrations up to 100 μM. The inhibitors were diluted using HNPT buffer consisting of HEPES 100 mM, NaCl 140 mM, PEG 6000 0.1% and Tween 80 0.02%, pH 7.8. The cleavage of S-2222 by human factor Xa was followed at 405 nm for 5 minutes at room temperature. The velocity of the reaction was determined by the autoreader from the slope of the linear regression fit to 7 time points (1 minute). The initial velocity for each inhibitor concentration was determined by the slope of at least 4 time points in the linear phase by a linear regression fit […]. Apparent dissociation constants Ki were calculated according to Cheng and Prusoff [Cheng, Y. C.; Prusoff, W. H. Relationship between the inhibition constant (Ki) and the concentration of the inhibitor that causes 50 percent inhibition (IC50) of an enzyme reaction. Biochem. Pharmacol. 1973, 22, 3099-3108.] based on the IC50 and the respective Km, determined previously (Ki=IC50/(1+S/Km)). The Km for the substrate used was determined under the conditions of the test with at least 5 substrate concentrations ranging from 0.5 to 15 times Km. [Lottenberg R, Hall J A, Blinder M, Binder E P, Jackson C M., The action of thrombin on peptide p-nitroanilide substrates. Substrate selectivity and examination of hydrolysis under different reaction conditions. Biochim Biophys Acta. 1983 Feb. 15; 742(3):539-57]. According to Eadie [Eadie G. S. The inhibition of cholinesterase by physostigmine and prostigmine. J. Biol. Chem. 1942, 146, 85-93.], the Km for S-2222 amounted to 613 μM.
# T1 sequence (P00742 235-488 limits assumed): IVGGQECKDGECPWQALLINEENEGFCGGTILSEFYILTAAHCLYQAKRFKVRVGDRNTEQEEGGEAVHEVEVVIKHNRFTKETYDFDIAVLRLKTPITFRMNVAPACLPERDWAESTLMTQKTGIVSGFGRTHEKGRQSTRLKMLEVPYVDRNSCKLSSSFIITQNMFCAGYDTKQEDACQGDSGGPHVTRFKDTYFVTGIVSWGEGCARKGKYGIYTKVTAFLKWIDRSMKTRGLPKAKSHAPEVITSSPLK
# T1 sequence (P00742 41-179 partner limits assumed): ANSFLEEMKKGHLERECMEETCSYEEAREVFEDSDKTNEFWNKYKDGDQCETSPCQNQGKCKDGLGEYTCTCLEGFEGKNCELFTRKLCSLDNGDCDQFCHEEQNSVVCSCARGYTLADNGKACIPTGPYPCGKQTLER
row,Structure (SMILES),Ki
1,"O=C(N[C@H]1CC(C(=O)Nc2ccc(-n3ccccc3=O)cc2F)N(CCC(F)(F)F)C1)c1ccc(Cl)s1 (mixture of isomers) [Example 14, (S)-4-[(5-Chloro-thiophene-2-carbonyl)-amino]-1-(3,3,3-trifluoro-propyl)-pyrrolidine-2-carboxylic acid[2-fluoro-4-(2-oxo-2H-pyridin-1-yl)-phenyl]-amide]",0.042 µM
2,"O=C(N[C@@H]1CN[C@H](C(=O)Nc2ccc(-n3ccccc3=O)cc2F)C1)c1ccc(Cl)s1 [Example 2, (2S,4S)-4-[(5-Chloro-thiophene-2-carbonyl)-amino]-pyrrolidine-2-carboxylic acid[2-fluoro-4-(2-oxo-2H-pyridin-1-yl)-phenyl]-amide trifluoro-acetate]",0.023 µM
3,"N#CCN1C[C@@H](NC(=O)c2ccc(Cl)s2)C[C@H]1C(=O)Nc1ccc(-n2ccccc2=O)cc1F [Example 6, (2S,4S)-4-[(5-Chloro-thiophene-2-carbonyl)-amino]-1-cyanomethyl-pyrrolidine-2-carboxylic acid[2-fluoro-4-(2-oxo-2H-pyridin-1-yl)-phenyl]-amide]",0.046 µM
4,"CC(C)(C)OC(=O)N1C[C@@H](NC(=O)c2ccc(Cl)s2)C[C@H]1C(=O)Nc1ccc(-n2ccncc2=O)cc1F [Example 21, (2S,4S)-4-[(5-Chloro-thiophene-2-carbonyl)-amino]-2-[2-fluoro-4-(2-oxo-2H-pyrazin-1-yl)-phenylcarbamoyl]-pyrrolidine-1-carboxylic acid tert-butyl ester]",0.065 µM
